The text below walks through data of US20100068204A1, “4-ARYLOXYQUINOLIN-2(1H)-ONES AS MTOR KINASE AND PI3 KINASE INHIBITORS, FOR USE AS ANTI-CANCER AGENTS” (Wyeth, priority 2008, published 2010).

Some results are limits rather than exact numbers.

The target in experiment [1] is human TOR (FLAG-TOR) (Homo sapiens, UniProt P42345). In words: mTOR enzyme assay (DELFIA format, purified enzyme). The class given is biochemical. As to conditions: 800 ng/ml FLAG-TOR, 100 μM ATP, 1.25 μM His6-S6K; read-out: mTOR Kinase IC50.
In experiment [2] the target is PI3Kα (Homo sapiens, UniProt P42336). In words: PI3Kα fluorescence polarization assay. The class given is biochemical. As to conditions: 20 μM PIP2, 25 μM ATP. The method, then: The reaction buffer was 20 mM HEPES pH7.5, 2 mM MgCl2, 0.05% CHAPS, and 0.01% βME (added fresh). The substrate solution was 40 μM PIP2 (diC8, Echelon, Salt Lake City Utah cat #P-4508, 1 mM in water) and 50 μM ATP in the reaction buffer. Nunc 384-well black polypropylene fluorescent plates were used for PI3K assays. The assay is run by putting 9.5 μl of freshly diluted enzyme in the reaction buffer per well, adding 0.5 μl of diluted drug or DMSO, and mixing. Then 10 μl of the substrate solution is added to each well to start the reaction. A final concentration of 20 μM PIP2 and 25 μM ATP in the reaction was used. Reactions were allowed to proceed for 30-60 minutes at room temperature. After 30-60 minutes, 20 μl of a solution of 10 nM TAMRA detector (Red detector probe-Echelon) and 2.5 uM of GST-murine GRP (1.5 mg/ml in 17% glycerol) was added per well to stop the reaction. The resulting solution was mixed well and allowed to stand for 90-110 minutes before reading plate. Assay Plates were read on Perkin-Elmer Envision plate readers with appropriate filters for Tamra [BODIPY-TMRI(1,3,4,5)P4]. Data obtained were used to calculate enzymatic activity and enzyme inhibition by inhibitor compounds. It is important to keep Red probe solutions dark. This procedure is adapted from Echelon Biosciences Inc procedure for their PI3-Kinase fluorescence polarization activity Assay kit Product number K-1100.
Chain of PI3Kα (P42336 whole entry, species assumed): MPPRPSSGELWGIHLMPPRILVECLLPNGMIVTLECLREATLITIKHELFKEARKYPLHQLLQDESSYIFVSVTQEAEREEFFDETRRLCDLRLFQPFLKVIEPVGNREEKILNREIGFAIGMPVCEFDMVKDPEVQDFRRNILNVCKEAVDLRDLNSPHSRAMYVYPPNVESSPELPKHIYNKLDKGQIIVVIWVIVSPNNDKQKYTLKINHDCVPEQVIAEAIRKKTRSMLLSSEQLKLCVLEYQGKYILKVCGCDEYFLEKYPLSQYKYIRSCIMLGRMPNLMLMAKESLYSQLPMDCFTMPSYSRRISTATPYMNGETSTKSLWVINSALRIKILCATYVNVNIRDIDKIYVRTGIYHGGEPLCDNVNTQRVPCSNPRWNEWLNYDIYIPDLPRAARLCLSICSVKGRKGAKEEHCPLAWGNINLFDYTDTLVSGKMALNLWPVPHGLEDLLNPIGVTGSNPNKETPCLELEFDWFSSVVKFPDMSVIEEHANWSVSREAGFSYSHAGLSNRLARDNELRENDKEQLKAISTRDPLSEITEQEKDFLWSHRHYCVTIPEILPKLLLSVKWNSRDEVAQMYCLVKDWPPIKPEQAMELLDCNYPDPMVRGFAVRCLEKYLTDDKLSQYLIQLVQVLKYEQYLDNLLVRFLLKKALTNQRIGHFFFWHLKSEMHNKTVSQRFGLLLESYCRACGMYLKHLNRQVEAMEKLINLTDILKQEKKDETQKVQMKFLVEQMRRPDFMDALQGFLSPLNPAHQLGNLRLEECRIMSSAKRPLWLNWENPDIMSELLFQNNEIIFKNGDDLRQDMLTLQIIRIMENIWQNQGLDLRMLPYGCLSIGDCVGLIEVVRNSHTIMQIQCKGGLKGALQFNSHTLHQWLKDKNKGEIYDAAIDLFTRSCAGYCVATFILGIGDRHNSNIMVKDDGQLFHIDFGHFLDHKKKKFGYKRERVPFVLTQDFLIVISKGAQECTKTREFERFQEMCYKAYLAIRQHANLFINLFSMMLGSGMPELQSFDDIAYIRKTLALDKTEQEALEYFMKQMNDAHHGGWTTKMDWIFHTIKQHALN
Chain of PI3Kα (P27986 whole entry partner, species assumed): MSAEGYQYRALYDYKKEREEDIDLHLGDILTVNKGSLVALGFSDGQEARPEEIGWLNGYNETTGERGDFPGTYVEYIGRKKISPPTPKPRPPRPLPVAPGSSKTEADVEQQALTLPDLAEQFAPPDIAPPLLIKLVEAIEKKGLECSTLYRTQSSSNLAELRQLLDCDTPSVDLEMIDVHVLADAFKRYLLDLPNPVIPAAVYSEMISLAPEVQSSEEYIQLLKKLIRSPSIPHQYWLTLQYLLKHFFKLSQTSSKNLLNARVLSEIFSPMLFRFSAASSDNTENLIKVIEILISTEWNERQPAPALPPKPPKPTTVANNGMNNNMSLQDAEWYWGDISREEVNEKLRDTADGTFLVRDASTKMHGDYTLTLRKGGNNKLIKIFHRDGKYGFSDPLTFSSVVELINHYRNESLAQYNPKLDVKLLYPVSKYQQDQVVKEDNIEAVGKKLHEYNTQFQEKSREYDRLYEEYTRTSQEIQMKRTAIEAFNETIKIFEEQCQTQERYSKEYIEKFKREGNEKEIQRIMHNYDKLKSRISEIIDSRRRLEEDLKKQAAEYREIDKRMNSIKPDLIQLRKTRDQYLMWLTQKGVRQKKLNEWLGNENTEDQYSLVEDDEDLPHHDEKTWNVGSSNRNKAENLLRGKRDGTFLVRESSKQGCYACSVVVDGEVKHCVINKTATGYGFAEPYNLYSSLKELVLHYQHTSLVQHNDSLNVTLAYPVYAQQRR
In general terms: Polarisation of emitted light reports the rotation of a fluorescent probe.

The test system of experiment [3] is LNCap prostate tumor cells. In words: In vitro cell growth assay (MTS), LNCap. The class given is cell-based, human. Conditions: Homo sapiens, LNCaP, 72 h, three days after drug treatment. The method, then: (§1) Cell lines used were human adenocarcinoma (LoVo), […], prostate (LNCap), breast (MDA468, MCF7), colon (HCT116), renal (HTB44 A498), and ovarian (OVCAR3) tumor cell lines. The tumor cells were plated in 96-well culture plates at approximately 3000 cells per well. One day following plating, various concentrations of inhibitors in DMSO were added to cells (final DMSO concentration in cell assays was 0.25%). Three days after drug treatment, viable cell densities were determined by cell mediated metabolic conversion of the dye MTS, a well-established indicator of cell proliferation in vitro. Cell growth assays were performed using kits purchased from Promega Corporation (Madison, Wis.), following the protocol provided by the vendor. Measuring absorbance at 490 nm generated MTS assay results. Compound effect on cell proliferation was assessed relative to untreated control cell growth.

Experiment [4] deals with MDA468 breast tumor cells. In words: In vitro cell growth assay (MTS), MDA468. The class given is cell-based, human. As to conditions: Homo sapiens, 72 h, three days after drug treatment. How it is done:
as §1

A word on the IC50: it is the point on the concentration scale where inhibition reaches its midpoint. As for `O=c1cc(Oc2cccc(NCc3cncc(F)c3)c2)c2ccccc2[nH]1`, the IC50 in experiment [1] came out at 0.05 µM; in experiment [2], 8.99 µM; in experiment [3] it was 1.9 µM; in experiment [4], 7.2 µM.

Consider `O=c1cc(Oc2ccccc2)c2cc(-c3cn[nH]c3)ccc2[nH]1`, for which the IC50 is 19 µM in experiment [1], 0.375 µM in experiment [2], more than 60 µM in experiment [3] and more than 60 µM in experiment [4].

Consider `O=c1cc(Oc2cccc(C(F)(F)F)c2)c2ccccc2[nH]1`, for which the IC50 in experiment [1] was 1.35 µM; in experiment [2], 8.69 µM; in experiment [3] it was more than 60 µM; in experiment [4], more than 60 µM.

Turning to `O=c1cc(Oc2ccc(OC(F)(F)F)cc2)c2ccccc2[nH]1`, the IC50 in experiment [1] was more than 20 µM; in experiment [2], more than 10 µM; in experiment [3], more than 60 µM; in experiment [4], more than 60 µM.

Consider `N#CCc1cccc(Oc2cc(=O)[nH]c3ccccc23)c1`, for which the IC50 in experiment [1] amounted to 0.3 µM; in experiment [2] it was 5.8 µM; in experiment [3], 4.2 µM; in experiment [4], 22 µM.

`O=c1cc(Oc2ccccc2Br)c2ccccc2[nH]1`: the IC50 was found to be 0.95 µM in experiment [1], 8 µM in experiment [2], 7 µM in experiment [3] and 40 µM in experiment [4].

Consider `O=c1cc(Oc2cccc(OC(F)(F)F)c2)c2ccccc2[nH]1`, for which the IC50 was 0.75 µM in experiment [1], 8 µM in experiment [2], 7 µM in experiment [3] and 60 µM in experiment [4].

As for `O=c1cc(Oc2ccc(C(F)(F)F)cc2)c2ccccc2[nH]1`, the IC50 in experiment [1] was more than 20 µM; in experiment [2], 2.31 µM; in experiment [3] it was more than 60 µM; in experiment [4] it was more than 60 µM.

Turning to `O=c1cc(Oc2cccc(-c3cccnc3)c2)c2ccccc2[nH]1`, the IC50 in experiment [1] came out at 0.43 µM; in experiment [2], 3.66 µM; in experiment [3], 7 µM; in experiment [4], 20 µM.

As for `Nc1cccc(Oc2cc(=O)[nH]c3ccccc23)c1`, the IC50 in experiment [1] is 0.15 µM; in experiment [2], 0.106 µM; in experiment [3], 2.5 µM; in experiment [4], 28 µM.

Turning to `O=c1cc(Oc2cccc(-c3ccoc3)c2)c2ccccc2[nH]1`, the IC50 in experiment [1] was 0.35 µM; in experiment [2], 4.32 µM; in experiment [3], 6.2 µM; in experiment [4], 0.3 µM.

`O=c1cc(Oc2cccc(-c3ccsc3)c2)c2ccccc2[nH]1`: the IC50 in experiment [1] is 0.63 µM; in experiment [2] it was 0.63 µM; in experiment [3] it was 30 µM; in experiment [4], 60 µM.

With `Cn1cc(-c2ccc(Oc3cc(=O)[nH]c4ccccc34)cc2)cn1`, the IC50 is 1.98 µM in experiment [1], 2.28 µM in experiment [2], 1.3 µM in experiment [3] and more than 60 µM in experiment [4].

Regarding `O=c1cc(Oc2cccc(Br)c2)c2ccccc2[nH]1`, the IC50 in experiment [1] was 0.11 µM; in experiment [2], more than 10 µM; in experiment [3] it was 60 µM; in experiment [4], more than 60 µM.

Take `O=c1cc(Oc2cccc(-c3cn[nH]c3)c2)c2ccccc2[nH]1`: the IC50 in experiment [1] is 0.3 µM; in experiment [2], 3.9 µM; in experiment [3], 8 µM; in experiment [4], 2.9 µM.

For `Cn1cc(-c2cccc(Oc3cc(=O)[nH]c4ccccc34)c2)cn1`, the concentration for half-maximal inhibition (IC50) is 0.18 µM in experiment [1], more than 10 µM in experiment [2], more than 60 µM in experiment [3] and 60 µM in experiment [4].

Take `O=c1cc(Oc2cccc(-c3ccccc3)c2)c2ccccc2[nH]1`: the IC50 in experiment [1] is 0.63 µM; in experiment [2], more than 10 µM; in experiment [3], 17 µM; in experiment [4], 60 µM.

Consider `O=c1cc(Oc2ccccc2)c2ccc(-c3cn[nH]c3)cc2[nH]1`, for which the IC50 in experiment [1] is more than 20 µM; in experiment [2] it was 2.76 µM; in experiment [3] it was more than 60 µM; in experiment [4], more than 60 µM.

Take `Cn1cc(-c2ccc3c(Oc4ccccc4)cc(=O)[nH]c3c2)cn1`: the IC50 in experiment [1] is more than 20 µM; in experiment [2] it was 4.63 µM; in experiment [3], more than 60 µM; in experiment [4], more than 60 µM.
